Results as given in patent publication US20100168079A1 (priority 2008, published 2010).
Like-named read-outs stand apart in the source and are kept apart here.

How the values were obtained:
circulating lymphocytes = test: Measurement of Circulating Lymphocytes; type: in vivo, Rats (Lewis strain, male); conditions: Rattus norvegicus, Lymphocyte, read-out: Residual Lymphocyte Counts 14 hours after 30 mg/kg p.o. dosing
Description: The compounds of formula (I) typically induce the depletion of blood lymphocyte as may be determined in the assay described below. Moreover, compounds of formula (I) are typically efficacious in the said assay also when administered via the per oral route of administration.
Measurement of Circulating Lymphocytes:
The test compounds (or salts thereof) are dissolved in a vehicle such as water, saline, PEG (polyethylene glycol) 200, or PBS (phosphate buffered saline). Rats (Lewis strain, male, 6-12 weeks old) are administered up to 100 mg/kg of the test compounds in 2 ml/kg vehicle via per oral or subcutaneous application. The vehicle or a reference salt and FTY720 (0.3 mg/kg) are included as negative and positive controls, respectively.
Blood is collected from the sublingual vein before and 2, 8 and 24 hours or 14, 18 and 24 hours after the test compound administration under short isoflurane anesthesia. Whole blood samples are subjected to hematology analysis. Peripheral lymphocyte counts are determined using an automated analyzer. The Haemathology System uses a combination of light scatter, cytochemical staining and nuclear density on two independent channels to measure the total and differential white cell counts. Two to four rats are used to assess the lymphocyte depletion activity of each compound screened. The data are presented as mean±SEM.

human S1P1 receptors = molecular target: T1, human S1P1 receptors (Homo sapiens, UniProt P21453); test: Human S1P1 Receptor Calcium FLIPR Antagonist Assay (HeLa Gα16 S1P1); type: cell-based; conditions: relative antagonism of Ca2+ signal evoked by probing agonist GNF-AC-1 at EC80; HeLa-S1P1/Gα16 cells
T1 construct: myc (N); expressed in transfected cells; host or cells: HeLa (human cervix carcinoma, ATCC CCL2), HeLa-S1P1/Gα16 cell clone 1
T1 sequence (P21453 whole entry): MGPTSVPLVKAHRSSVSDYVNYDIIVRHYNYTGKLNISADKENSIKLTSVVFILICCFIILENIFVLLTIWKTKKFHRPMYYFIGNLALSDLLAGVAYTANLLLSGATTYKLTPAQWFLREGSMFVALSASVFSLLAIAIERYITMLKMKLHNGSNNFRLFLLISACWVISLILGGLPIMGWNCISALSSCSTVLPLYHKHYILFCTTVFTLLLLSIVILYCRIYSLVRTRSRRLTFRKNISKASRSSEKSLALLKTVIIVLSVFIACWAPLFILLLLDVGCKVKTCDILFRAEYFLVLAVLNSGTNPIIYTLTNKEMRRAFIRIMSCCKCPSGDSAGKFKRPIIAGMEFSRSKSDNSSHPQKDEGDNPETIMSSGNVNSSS
Description: Human S1P1 Receptor Calcium FLIPR Antagonist Assay
The cells are plated in 384 well black plates (10′000 cells per well). […] After washing, the cells are transferred to the FLIPR. The test compounds are added at different concentrations […]) in HBSS in the presence of 0.1% BSA and changes in fluorescence are recorded (indication of agonism). The probing agonist is added 20-30 minutes afterwards to the wells at a concentration giving 80% of the maximal activity (EC80). After each addition, time points are collected as follows: 20 time points (2 seconds) before the addition of the agonist (Fmin) and 60 time points (1 or 2 seconds) after the addition of the probing agonist. This allows the determination of the maximal fluorescence (Fmax). The ratio (Fmax-Fmin)/Fmin is plotted against the log of the concentration of the test compounds and the IC50 (relative antagonism) is calculated using the XLfit-4 software. […] A concentration-response curve of the probing agonist is determined on each plate in parallel.

| SMILES | IC50 (human S1P1 receptors) [nM] | also measured |
| --- | --- | --- |
| Cc1cc([C@@H](C)Nc2cccc(-c3cc(C)c(C(=O)N[C@@H](C)C(=O)O)c(C)c3)c2)ccc1Cl [Example 3, (S)-2-({3′-[(R)-1-(4-Chloro-3-methyl-phenyl)-ethylamino]-3,5-dimethyl-biphenyl-4-carbonyl}-amino)-propionic acid] | – | response vs control in vivo at 30 mg/kg (circulating lymphocytes; po, 14 h): 15.5% |
| CC[C@@H](Nc1cccc(-c2cc(C)c(C(=O)N[C@@H](C)C(=O)O)c(C)c2)c1)c1ccc(Cl)c(C)c1 [Example 6, (S)-2-({3′-[(R)-1-(4-Chloro-3-methyl-phenyl)-propylamino]-3,5-dimethyl-biphenyl-4-carbonyl}-amino)-propionic acid] | 2 | response vs control in vivo at 30 mg/kg (circulating lymphocytes; male Lewis rats, 14 hours after oral 30 mg/kg, compared to vehicle-only group, mean±SEM): 15.9% |
| CCC(Nc1ccc(F)c(-c2ccc(C(=O)N(C)[C@@H](C)C(=O)O)c(C)c2)c1)c1ccc(Cl)c(C)c1 (stereo partly drawn) [Example 86, (S)-2-({5′-[1-(4-Chloro-3-methyl-phenyl)-propylamino]-2′-fluoro-3-methyl-biphenyl-4-carbonyl}-methyl-amino)-propionic acid] | 6 | – |
| Cc1cc(C(C)Nc2ccc(F)c(-c3ccc(C(=O)N(C)[C@@H](C)C(=O)O)c(Cl)c3)c2)ccc1Cl (stereo partly drawn) [Example 87, (S)-2-({3-Chloro-5′-[1-(4-chloro-3-methyl-phenyl)-ethylamino]-2′-fluoro-biphenyl-4-carbonyl}-methyl-amino)-propionic acid] | 4 | – |
| CCC(Nc1ccc(F)c(-c2ccc(C(=O)N(C)[C@@H](C)C(=O)O)c(Cl)c2)c1)c1ccc(Cl)c(C)c1 (stereo partly shown) [Example 88] | 5 | – |
| CCC(Nc1ccc(F)c(-c2ccc(C(=O)N(C)[C@@H](C)C(=O)O)c(C(F)(F)F)c2)c1)c1ccc(Cl)c(C)c1 (stereo partly drawn) [Example 89, (S)-2-({5′-[1-(4-Chloro-3-methyl-phenyl)-propylamino]-2′-fluoro-3-trifluoromethyl-biphenyl-4-carbonyl}-methyl-amino)-propionic acid] | 13 | – |
| Cc1cc(C(Nc2cccc(-c3cc(C)c(C(=O)N[C@@H](C)C(=O)O)c(C)c3)c2)C(C)C)ccc1Cl (stereo partly drawn) [Example 90, (S)-2-({3′-[1-(4-Chloro-3-methyl-phenyl)-2-methyl-propylamino]-3,5-dimethyl-biphenyl-4-carbonyl}-amino)-propionic acid] | 10 | – |
| Cc1cc(C(Nc2cccc(-c3ccc(C(=O)N(C)[C@@H](C)C(=O)O)c(C(F)(F)F)c3)c2)C(F)(F)F)ccc1Cl (stereo partly drawn) [Example 91, (S)-2-({3′-[1-(4-Chloro-3-methyl-phenyl)-2,2,2-trifluoro-ethylamino]-3-trifluoromethyl-biphenyl-4-carbonyl}-methyl-amino)-propionic acid] | 4 | – |
| Cc1cc(C(Nc2cccc(-c3ccc(C(=O)N[C@@H](C)C(=O)O)c(C(F)(F)F)c3)c2)C(F)(F)F)ccc1Cl (stereo partly drawn) [Example 92, (S)-2-({3′-[1-(4-Chloro-3-methyl-phenyl)-2,2,2-trifluoro-ethylamino]-3-trifluoromethyl-biphenyl-4-carbonyl}-amino)-propionic acid] | 4 | – |
| Cc1cc(C(Nc2cccc(-c3ccc(C(=O)N(C)C4(C(=O)O)CC4)c(C(F)(F)F)c3)c2)C(F)(F)F)ccc1Cl (stereo not shown) [Example 93, 1-({3′-[1-(4-Chloro-3-methyl-phenyl)-2,2,2-trifluoro-ethylamino]-3-trifluoromethyl-biphenyl-4-carbonyl}-methyl-amino)-cyclopropanecarboxylic acid] | 4 | – |
| Cc1cc(C(Nc2cccc(-c3ccc(C(=O)N[C@@H](C)C(=O)O)c(Cl)c3)c2)C(F)(F)F)ccc1Cl (stereo partly shown) [Example 94] | 14 | – |
| Cc1cc(C(Nc2cccc(-c3ccc(C(=O)NC4(C(=O)O)CC4)c(Cl)c3)c2)C(F)(F)F)ccc1Cl (stereo not shown) [Example 95, 1-({3-Chloro-3′-[1-(4-chloro-3-methyl-phenyl)-2,2,2-trifluoro-ethylamino]-biphenyl-4-carbonyl}-amino)-cyclopropanecarboxylic acid] | 14 | – |
| Cc1cc([C@H](Nc2cccc(-c3ccc(C(=O)N(C)[C@@H](C)C(=O)O)c(Cl)c3)c2)C(F)(F)F)ccc1Cl [Example 96, (S)-2-({3-Chloro-3′-[(S)-1-(4-chloro-3-methyl-phenyl)-2,2,2-trifluoro-ethylamino]-biphenyl-4-carbonyl}-methyl-amino)-propionic acid] | 2 | – |
| Cc1cc(C(C)(C)Nc2cccc(-c3ccc(C(=O)N[C@@H](C)C(=O)O)c(Cl)c3)c2)ccc1Cl [Example 97, (S)-2-({3-Chloro-3′-[1-(4-chloro-3-methyl-phenyl)-1-methyl-ethylamino]-biphenyl-4-carbonyl}-amino)-propionic acid] | 1 | – |
| Cc1cc(C(C)(C)Nc2cccc(-c3ccc(C(=O)N(C)[C@@H](C)C(=O)O)c(Cl)c3)c2)ccc1Cl [Example 98, (S)-2-({3-Chloro-3′-[1-(4-chloro-3-methyl-phenyl)-1-methyl-ethylamino]-biphenyl-4-carbonyl}-methyl-amino)-propionic acid] | 4 | – |
| CC[C@@H](Nc1cccc(-c2cc(C)c(C(=O)N[C@@H](C)C(=O)O)c(C)c2)c1)c1cc(C)c(Cl)c(C)c1 [Example 101, (S)-2-({3′-[(R)-1-(4-Chloro-3,5-dimethyl-phenyl)-propylamino]-3,5-dimethyl-biphenyl-4-carbonyl}-amino)-propionic acid] | 1 | – |
| CC[C@@H](Nc1cccc(-c2cc(C)c(C(=O)NC3(C(=O)O)CC3)c(C)c2)c1)c1cc(C)c(Cl)c(C)c1 [Example 102, 1-({3-[(R)-1-(4-Chloro-3,5-dimethyl-phenyl)-propylamino]-3,5-dimethyl-biphenyl-4-carbonyl}-amino)-cyclopropanecarboxylic acid] | 1 | – |
| CC[C@H](c1ccc(Cl)c(C)c1)N(C)c1cccc(-c2cc(C)c(C(=O)N[C@@H](C)C(=O)O)c(C)c2)c1 [Example 104, (S)-2-[(3′-{[(R)-1-(4-Chloro-3-methyl-phenyl)-propyl]-methyl-amino}-3,5-dimethyl-biphenyl-4-carbonyl)-amino]-propionic acid] | 1 | – |
| CC[C@@H](Nc1cccc(-c2cc(C)c(C(=O)N(C)[C@@H](C)C(=O)O)c(C)c2)c1)c1ccc(Cl)c(C)c1 [Example 107, (S)-2-({3′-[(R)-1-(4-Chloro-3-methyl-phenyl)-propylamino]-3,5-dimethyl-biphenyl-4-carbonyl}-methyl-amino)-propionic acid] | 1 | – |
| CC[C@H](c1ccc(Cl)c(C)c1)N(C)c1cccc(-c2cc(C)c(C(=O)N(C)C3(C(=O)O)CC3)c(C)c2)c1 [Example 110, 1-[(3′-{[(R)-1-(4-Chloro-3-methyl-phenyl)-propyl]-methyl-amino}-3,5-dimethyl-biphenyl-4-carbonyl)-methyl-amino]-cyclopropanecarboxylic acid] | 35 | – |
| CC[C@@H](Nc1cccc(-c2cc(C)c(C(=O)N(C)C3(C(=O)O)CC3)c(C)c2)c1)c1ccc(Cl)c(C)c1 [Example 111, 1-({3′-[(R)-1-(4-Chloro-3-methyl-phenyl)-propylamino]-3,5-dimethyl-biphenyl-4-carbonyl}-methyl-amino)-cyclopropanecarboxylic acid] | 8 | – |
| Cc1cc([C@@H](C)Nc2cccc(-c3cc(C)c(C(=O)N[C@@H](CN)C(=O)O)c(C)c3)c2)ccc1Cl [Example 114, (S)-3-Amino-2-({3′-[(R)-1-(4-chloro-3-methyl-phenyl)-ethylamino]-3,5-dimethyl-biphenyl-4-carbonyl}-amino)-propionic acid] | 1 | – |
| CC[C@H](c1ccc(Cl)c(C)c1)N(C)c1ccc(F)c(-c2cc(C)c(C(=O)N[C@@H](C)C(=O)O)c(C)c2)c1 [Example 116, (S)-2-[(5′-{[(R)-1-(4-Chloro-3-methyl-phenyl)-propyl]-methyl-amino}-2′-fluoro-3,5-dimethyl-biphenyl-4-carbonyl)-amino]-propionic acid] | 2 | – |
| CC[C@H](c1ccc(Cl)c(C)c1)N(C)c1ccc(F)c(-c2cc(C)c(C(=O)N(C)[C@@H](C)C(=O)O)c(C)c2)c1 [Example 118, (S)-2-[(5′-{[(R)-1-(4-Chloro-3-methyl-phenyl)-propyl]-methyl-amino}-2′-fluoro-3,5-dimethyl-biphenyl-4-carbonyl)-methyl-amino]-propionic acid] | 4 | – |
